Test systems include ACHN; BT-549; DU-145; HCT-116; HL-60; HT-29; Hs-578T; KM12; LOX IMVI; MOLT-4; Malme-3M; NCI-H460; NCI-H522; PC-3; RXF 393; SK-MEL-5; SK-OV-3; T47D; UACC-257; UO-31.
What all share (assay): inhibition of tumour cell growth, NCI panel, 48 h

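Exposure lasted 48 hours, with cells grown in 96-well plates and compounds tested at five concentrations. At the GI50, growth is halved.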 Activity calls are given as the source filed them. No stated cut-off is given here; in the data, active = GI50 up to about 1.1 µM and inactive = higher.

For `CN1CCC2(c3ccccc3)CC(=O)/C(=C/c3ccc(Cl)c(Cl)c3)C1C2.[O-][Cl+3]([O-])([O-])O` (stereo not given), the GI50 with ACHN is 1.77 µM (inactive); with BT-549, 2.72 µM (inactive); in the experiment with DU-145, 3.25 µM (inactive); in the experiment with HCT-116, 2.62 µM (inactive); in the experiment on HL-60, 0.333 µM (active); in the experiment with HT-29 it was 1.95 µM (inactive). Moreover, the GI50 is 4.47 µM (inactive) with Hs-578T; 1.94 µM (inactive) in the experiment on KM12; 1.71 µM (inactive) in the experiment with LOX IMVI; 2.6 µM (inactive) with MOLT-4; 11.5 µM (inactive) with Malme-3M; 2.35 µM (inactive) with NCI-H460. The GI50 was 1.84 µM (inactive) in the experiment on NCI-H522; 1.96 µM (inactive) in the experiment with PC-3; 2.61 µM (inactive) with RXF 393; 2.6 µM (inactive) in the experiment with SK-MEL-5; 4.05 µM (inactive) with SK-OV-3; 4.7 µM (inactive) with T47D. Moreover, the GI50 in the experiment on UACC-257 is 9.46 µM (inactive); with UO-31, 1.95 µM (inactive).
In the case of `C=C1C(=O)O[C@@H]2C[C@@H]3[C@]4(CC[C@]5(C)[C@@H]([C@H](C)CC/C=C(\C)C=O)CC[C@@]35C)C[C@]4(CCC(=O)OC)[C@H]12`, the GI50 in the experiment on ACHN was 2.06 µM (inactive); in the experiment on BT-549, 2.03 µM (inactive); in the experiment on DU-145 it was 1.79 µM (inactive); with HCT-116 it was 0.771 µM (active); with HL-60, 0.367 µM (active); with HT-29, 4.39 µM (inactive). Moreover, the GI50 is 3.01 µM (inactive) with Hs-578T; 1.86 µM (inactive) in the experiment on KM12; 1.28 µM (inactive) in the experiment with LOX IMVI; 0.979 µM (active) in the experiment on MOLT-4; 1.59 µM (inactive) in the experiment on Malme-3M; 2.8 µM (inactive) in the experiment on NCI-H460. In addition, the GI50 is 3.09 µM (inactive) in the experiment on NCI-H522; 1.9 µM (inactive) in the experiment on PC-3; 1.89 µM (inactive) in the experiment with RXF 393; 0.83 µM (active) in the experiment with SK-MEL-5; 3.52 µM (inactive) in the experiment on SK-OV-3; 1.9 µM (inactive) with T47D. Moreover, the GI50 is 0.454 µM (active) in the experiment on UACC-257 and 2 µM (inactive) with UO-31.

Values taken from ChEMBL document CHEMBL1201862, “PubChem BioAssay data set” (2004).
